Experimental data reported in ChEMBL document CHEMBL6153125, “Harnessing the Magic Methyl Effect: Discovery of CLPP-2068 as a Novel HsClpP Activator for the Treatment of Diffuse Large B-Cell Lymphoma” (J Med Chem, 2025).
Non-standard residues stand in square brackets, D forms with d. Residues, ends and D or L forms follow the SMILES beside them. αMeP = C[C@@]1(C(=O)O)CCCN1

How the values were obtained:
[1] = biological target: ATP-dependent Clp protease proteolytic subunit, mitochondrial (Homo sapiens, UniProt Q16740); experiment: Activation of human ClpP extracted from Escherichia coli using Ac-WLA-AMC as substrate assessed as fluorescence signal measured after 10 mins incubation
[2] = tested on: OCI-Ly10; experiment: Antiproliferative activity against human OCI-Ly10 cells assessed as cell viability measured after 72 hrs incubation by CellTiter-based growth inhibition assay; conditions: OCI-Ly10, 72 h
[3] = biological target: Voltage-gated inwardly rectifying potassium channel KCNH2 (Homo sapiens, UniProt Q12809)
[4] = biological target: T1, 3-hydroxy-3-methylglutaryl-coenzyme A reductase (Rattus norvegicus, UniProt P51639)
T1 sequence (P51639 whole entry): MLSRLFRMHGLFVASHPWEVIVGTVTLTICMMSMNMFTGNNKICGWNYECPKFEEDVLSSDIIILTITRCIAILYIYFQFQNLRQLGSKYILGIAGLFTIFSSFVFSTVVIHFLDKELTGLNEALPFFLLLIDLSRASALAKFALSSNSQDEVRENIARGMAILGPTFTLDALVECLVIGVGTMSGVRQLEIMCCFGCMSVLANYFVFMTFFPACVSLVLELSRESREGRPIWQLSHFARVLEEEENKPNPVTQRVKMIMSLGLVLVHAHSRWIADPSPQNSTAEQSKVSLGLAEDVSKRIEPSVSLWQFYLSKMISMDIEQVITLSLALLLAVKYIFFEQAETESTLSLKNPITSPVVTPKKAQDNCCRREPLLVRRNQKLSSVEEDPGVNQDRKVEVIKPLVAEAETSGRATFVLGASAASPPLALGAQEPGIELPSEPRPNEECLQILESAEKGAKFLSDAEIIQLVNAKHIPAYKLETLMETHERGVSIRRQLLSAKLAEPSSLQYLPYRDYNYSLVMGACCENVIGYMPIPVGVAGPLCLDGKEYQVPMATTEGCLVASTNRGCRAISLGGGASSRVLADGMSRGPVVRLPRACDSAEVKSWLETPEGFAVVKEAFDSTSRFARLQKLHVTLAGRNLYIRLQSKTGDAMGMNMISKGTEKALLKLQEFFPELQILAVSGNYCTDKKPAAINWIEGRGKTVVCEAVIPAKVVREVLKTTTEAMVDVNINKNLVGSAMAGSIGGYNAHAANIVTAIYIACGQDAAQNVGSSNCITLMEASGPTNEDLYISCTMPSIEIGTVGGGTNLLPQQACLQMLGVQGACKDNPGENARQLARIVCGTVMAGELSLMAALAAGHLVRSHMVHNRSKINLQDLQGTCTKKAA
Description: Inhibition of HMG-CoA reductase activity in rat liver microsomes

[5] = in vivo; conditions: rat, blood, iv, 10 mg/kg
Description: Elimination half life in rat blood at 10 mg/kg, iv measured after 12 hrs

Sequence of ATP-dependent Clp protease proteolytic subunit, mitochondrial (Q16740 whole entry): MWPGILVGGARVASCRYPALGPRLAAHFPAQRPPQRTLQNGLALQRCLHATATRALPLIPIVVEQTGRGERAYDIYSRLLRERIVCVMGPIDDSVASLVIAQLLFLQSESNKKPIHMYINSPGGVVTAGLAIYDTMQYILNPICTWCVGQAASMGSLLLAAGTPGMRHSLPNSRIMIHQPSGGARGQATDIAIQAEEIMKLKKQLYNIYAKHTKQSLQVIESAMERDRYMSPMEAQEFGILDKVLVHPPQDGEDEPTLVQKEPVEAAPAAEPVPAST
Sequence of Voltage-gated inwardly rectifying potassium channel KCNH2 (Q12809 whole entry): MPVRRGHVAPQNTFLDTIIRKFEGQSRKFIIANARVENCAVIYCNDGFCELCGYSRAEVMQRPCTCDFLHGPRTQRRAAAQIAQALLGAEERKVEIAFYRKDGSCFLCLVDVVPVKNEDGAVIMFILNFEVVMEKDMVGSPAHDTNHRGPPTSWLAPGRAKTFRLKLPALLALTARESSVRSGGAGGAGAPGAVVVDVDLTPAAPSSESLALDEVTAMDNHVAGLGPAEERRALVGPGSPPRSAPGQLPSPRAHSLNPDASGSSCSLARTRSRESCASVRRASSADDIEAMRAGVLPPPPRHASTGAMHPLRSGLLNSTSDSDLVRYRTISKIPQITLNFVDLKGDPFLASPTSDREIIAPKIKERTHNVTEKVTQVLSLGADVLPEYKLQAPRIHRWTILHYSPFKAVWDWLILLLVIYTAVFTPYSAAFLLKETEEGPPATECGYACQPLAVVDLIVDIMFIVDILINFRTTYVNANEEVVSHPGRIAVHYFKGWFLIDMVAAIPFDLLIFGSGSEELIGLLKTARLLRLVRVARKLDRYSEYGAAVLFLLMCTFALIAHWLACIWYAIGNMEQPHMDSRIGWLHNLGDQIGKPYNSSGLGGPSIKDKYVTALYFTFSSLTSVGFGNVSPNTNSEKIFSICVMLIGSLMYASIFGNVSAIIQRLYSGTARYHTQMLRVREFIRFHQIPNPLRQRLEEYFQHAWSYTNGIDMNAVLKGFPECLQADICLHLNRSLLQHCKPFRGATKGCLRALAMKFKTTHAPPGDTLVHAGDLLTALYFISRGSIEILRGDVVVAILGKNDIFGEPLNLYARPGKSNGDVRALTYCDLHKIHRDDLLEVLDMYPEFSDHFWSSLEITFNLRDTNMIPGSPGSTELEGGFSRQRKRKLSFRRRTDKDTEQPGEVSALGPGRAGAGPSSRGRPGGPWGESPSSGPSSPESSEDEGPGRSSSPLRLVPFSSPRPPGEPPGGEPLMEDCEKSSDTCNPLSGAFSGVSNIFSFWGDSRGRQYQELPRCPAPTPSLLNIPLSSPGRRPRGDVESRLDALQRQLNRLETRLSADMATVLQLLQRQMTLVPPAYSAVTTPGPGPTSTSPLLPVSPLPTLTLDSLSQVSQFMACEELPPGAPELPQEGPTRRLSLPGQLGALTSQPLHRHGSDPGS

Row | Compound | EC50 [1] [nM] | IC50 [2] [nM] | IC50 [4] [nM] | half-life at 12 h [5] [h] | IC50 [3] [nM]
1 | C[C@@H]1Cc2nc(NCC3CC3)[nH]c(=O)c2CN1Cc1cccc(C#N)c1 | 1430 | 4030 |  |  | 
2 | C[C@@H]1Cc2nc(NCc3ccc(C(F)(F)F)cc3)[nH]c(=O)c2CN1Cc1ccc(C#N)cc1 | 1360 | 6040 |  |  | 
3 | C[C@@H]1Cc2nc(NCc3ccc(C(F)(F)F)cc3)[nH]c(=O)c2CN1Cc1cccnc1 | 3380 | 7840 |  |  | 
4 | C[C@@H]1Cc2nc(NCc3ccc(Br)cc3)[nH]c(=O)c2CN1Cc1cccc(C#N)c1 |  |  |  |  | 4910
5 | C[C@@H]1Cc2nc(NCc3ccc(C(F)(F)F)cc3)[nH]c(=O)c2CN1Cc1ccncc1 | 3960 | 6400 |  |  | 
6 | C[C@@H]1Cc2nc(NCc3ccc(C(F)(F)F)cc3)[nH]c(=O)c2CN1Cc1ccccc1F | 1290 | 3100 |  |  | 
7 | CC[C@H](C)C(=O)O[C@H]1CCC=C2C=C[C@H](C)[C@H](CC[C@@H]3C[C@@H](O)CC(=O)O3)[C@H]21 [MEVASTATIN] |  |  | 5.6 |  | 
8 | C[C@@]1(C(=O)N[C@@H](CCC(=O)O)C(=O)O)CCCN1C(=O)CN [TROFINETIDE] (H-Gly-[αMeP]-Glu-OH) |  |  |  | 1.23 | 

The next lines start with results.

Row | EC50 [1] [nM] | IC50 [2] [nM] | IC50 [4] [nM] | half-life at 12 h [5] [h] | Compound | IC50 [3] [nM]
9 | 62.8 | 50.5 |  |  | C[C@@H]1Cc2nc(NCc3ccc(C(F)(F)F)cc3)[nH]c(=O)c2CN1Cc1cccc(Br)c1 | 
10 | 349 | 119 |  |  | C[C@@H]1Cc2nc(NCc3ccccc3Br)[nH]c(=O)c2CN1Cc1cccc(C#N)c1 | 
11 | 490 | 1080 |  |  | C[C@@H]1Cc2nc(NCc3ccc(C(F)(F)F)cc3)[nH]c(=O)c2CN1Cc1ccc(F)cc1 | 
12 | 151 | 110 |  |  | C[C@@H]1Cc2nc(NCc3ccc(C(F)(F)F)cc3)[nH]c(=O)c2CN1Cc1cccc(Cl)c1 | 
13 | 113 | 148 |  |  | Cc1cccc(CNc2nc3c(c(=O)[nH]2)CN(Cc2cccc(C#N)c2)[C@H](C)C3)c1 | 
14 | 272 | 153 |  |  | C[C@@H]1Cc2nc(NCc3ccc(C(F)(F)F)cc3)[nH]c(=O)c2CN1Cc1cccc(F)c1 | 
15 | 270 | 1290 |  |  | C[C@@H]1Cc2nc(NCc3ccc(C(F)(F)F)cc3)[nH]c(=O)c2CN1Cc1cccc(OC(F)(F)F)c1 | 
16 | 1000 | 9010 |  |  | COc1cccc(CN2Cc3c(nc(NCc4ccc(C(F)(F)F)cc4)[nH]c3=O)C[C@H]2C)c1 | 
17 | 44.8 | 89.1 |  |  | C[C@@H]1Cc2nc(NCc3cccc(Br)c3)[nH]c(=O)c2CN1Cc1cccc(C#N)c1 | 
